Read-outs that look alike come from different tables or passages of the source. Marks after values point to notes of the source that are not given here.
Columns and labels:
[1] = system: HADF human adult dermal fibroblasts; assay: Cytotoxicity against normal cell line, resazurin assay; format: cell-based; settings: for IC50: Fibroblast, read-out: Drug IC50 Values
Protocol: (§1) The growth inhibitory potency of 2-pyrrolino-5-imino-13-deoxydoxorubicin IV, 5-imino-13-deoxydoxorubicin III, and doxorubicin I against several cancer cell lines was evaluated using the resazurin fluorescence assay. The growth inhibitory potency was measured as the inhibitory concentration of a compound required to inhibit cell growth by 50% (IC50). The cancer cells were seeded into 96-well plates (0.5-1×10^4 cells/well) with appropriate media, incubated with drug for 48 hours, and then treated with resazurin (final concentration, 0.01%), a non-fluorescent blue dye, for 24 hours. The fluorescence (Ex560 nm/Em590 nm) was recorded using a BioTek SynergyHT multiwell plate fluorimeter. Healthy cells metabolize resazurin to resorufin, a fluorescent pink dye. Thus, fluorescence is a proxy for cell viability and used to determine the effect of cytotoxic agents on cell cultures. […] The activity of 2-pyrrolino-5-imino-13-deoxydoxorubicin IV was also greater than that of doxorubicin I, with IC50 values that were, on average, lower than those of doxorubicin I.
The compounds were also tested against a normal non-cancer cell line, normal human fibroblasts (HADF).

[2] = system: human cancer cell lines; assay: Antiproliferative activity, average over the five cancer cell lines of Table 1; format: cell-based; settings: for times more potent against cancer cells than a normal non-cancer cell line, on average: HADF IC50 / average cancer cell IC50; for IC50: Homo sapiens, read-out: Average Drug IC50 Values
Protocol: as §1
Even more unexpected and not predicted was that the selectivity of compound IV for cancer cells versus normal cells is shown to be 40 times greater compared to compound I (doxorubicin).

[3] = system: SW-872 liposarcoma cells; assay: Antiproliferative activity, resazurin assay, SW-872; format: cell-based; settings: Homo sapiens, read-out: Drug IC50 Values
Protocol: as §1

[4] = system: MES-SA cells; assay: Antiproliferative activity, doxorubicin sensitive uterine fibrosarcoma; format: cell-based; settings: Homo sapiens, read-out: Drug IC50 Values
Protocol: as §1
(§2) The compounds were further tested against a uterine fibrosarcoma cell line, MES-SA, sensitive to doxorubicin (compound I), and against a uterine fibrosarcoma cell line MES-SA/MX2 resistant to doxorubicin.

[5] = system: HeLa cervical adenocarcinoma cells; assay: Antiproliferative activity, resazurin assay, HeLa; format: cell-based; settings: Homo sapiens, read-out: Drug IC50 Values
Protocol: as §1

[6] = system: MES-SA/MX2 cells; assay: Antiproliferative activity, doxorubicin resistant uterine fibrosarcoma; format: cell-based, human; settings: for IC50: Homo sapiens, read-out: Drug IC50 Values; for potency in the resistant fibrosarcoma strain compared to the sensitive strain (times less potent): MES-SA/MX2 versus MES-SA
Protocol: as §1, §2

[7] = system: T47D breast ductal carcinoma cells; assay: Antiproliferative activity, resazurin assay, T47D; format: cell-based; settings: Homo sapiens, read-out: Drug IC50 Values
Protocol: as §1

[8] = system: GCT histiocytoma cells; assay: Antiproliferative activity, resazurin assay, GCT; format: cell-based; settings: Homo sapiens, read-out: Drug IC50 Values
Protocol: as §1

[9] = system: RD rhabdomyosarcoma cells; assay: Antiproliferative activity, resazurin assay, RD; format: cell-based; settings: Homo sapiens, Rhabdomyosarcoma cell, read-out: Drug IC50 Values
Protocol: as §1

[10] = system: HT1080 fibrosarcoma cells; assay: cells; format: cell-based; settings: for IC50 / IC10: 48 hours; for IC10: concentration inhibiting cell growth by 10%
Protocol: A fibrosarcoma cell line, HT1080, was used to measure the IC50's and IC10's (the inhibitory concentration of a compound required to inhibit cell growth by 10%) of Compound IV and Compound III, as described in Example 2. An IC50 concentration represents a therapeutic amount of compound. […] The cells were passaged and seeded at 5,000 cells/well on 96-well plates and the plates were incubated for 24 hours. After incubation, the media was changed and the IC50's and IC10's of compound IV and compound III were measured after 48 hours of incubation. Then, the IC50's of compound IV in the presence of compound III at an IC10 concentration and of compound III in the presence of compound IV at an IC10 concentration were measured after 48 hours of incubation. After the incubations, […] of 0.1% AlamarBlue in 1×PBS was added to each well. The plates were then incubated for a final 24 h. The plates were read on a microplate reader with an ex/em of 485/528.

[11] = system: advanced tumors; settings: patients with advanced tumors; cited from earlier work
[12] = system: HT1080-luc fibrosarcoma cells; assay: Inhibitory potency against HT1080-luc in vitro; format: cell-based; settings: Homo sapiens, read-out: IC50±SEM
Protocol: The growth inhibitory potency of 2-pyrrolino-5-imino-13-deoxydoxorubicin IV, 5-imino-13-deoxydoxorubicin III, and doxorubicin I against several cancer cell lines was evaluated using the resazurin fluorescence assay. The growth inhibitory potency was measured as the inhibitory concentration of a compound required to inhibit cell growth by 50% (IC50). The cancer cells were seeded into 96-well plates (0.5-1×10^4 cells/well) with appropriate media, incubated with drug for 48 hours, and then treated with resazurin (final concentration, 0.01%), a non-fluorescent blue dye, for 24 hours. The fluorescence (Ex560 nm/Em590 nm) was recorded using a BioTek SynergyHT multiwell plate fluorimeter. Healthy cells metabolize resazurin to resorufin, a fluorescent pink dye. Thus, fluorescence is a proxy for cell viability and used to determine the effect of cytotoxic agents on cell cultures. […]
To assess in vivo drug activity against a primary tumor growth model of sarcoma, an experiment was conducted using commercially available human HT1080 fibrosarcoma cells engineered to express luciferase (HT1080-luc; PerkinElmer). The inhibitory potency of Compound III and Compound IV against HT1080-luc was measured in vitro by the methods described in Example 2. […]

[13] = system: HT1080-luc tumors; assay: Primary tumor growth model of sarcoma in SCID mice; format: in vivo; settings: for Averge tumor weight / tumor weight reduced / tumor progression by in vivo bioluminescent imaging: day 20; for Averge tumor weight: SCID mice; for tumor weight reduced: 2.4 mg/kg, relative to PBS; for tumor progression by in vivo bioluminescent imaging: relative to PBS-only treatment
Protocol: To assess in vivo drug activity against a primary tumor growth model of sarcoma, an experiment was conducted using commercially available human HT1080 fibrosarcoma cells engineered to express luciferase (HT1080-luc; PerkinElmer). The inhibitory potency of Compound III and Compound IV against HT1080-luc was measured in vitro by the methods described in Example 2. […] HT1080-luc tumors were initiated in 6 week old female SCID mice (Harlan) by orthotopic subcutaneous injection of 1×10^6 cells in each flank. After allowing the tumors to establish for 6 days, mice were randomized to one of three treatment groups and treated three times per week by intraperitoneal injection with compound IV or compound III, 2.4 mg/kg in physiological buffered saline (PBS), or vehicle (PBS). […] At day 20 tumor weight was reduced 53% with compound IV while reduced only 36% with compound III at the same given dose. […] This is in contrast to 2-pyrrolinodoxorubicin which can be lethal at its effective dose range.

[14] = literature; cited from earlier work
[15] = system: cancer cells versus normal cells; settings: as reported; cited from earlier work
[16] = system: topoisomerase II; settings: compared with doxorubicin; Stepankova et al.; cited from earlier work
[17] = HADF normal human adult dermal fibroblasts, resazurin
[18] = average of SW-872, RD, GCT, HeLa, T47D
[19] = SW872, SW-872 liposarcoma, 48 hours drug, resazurin, mean ±SEM of 3 assays
[20] = MES-SA uterine fibrosarcoma (sensitive), mean ±SEM of 3 assays
[21] = HeLa cervical adenocarcinoma, 48 hours drug, resazurin, mean ±SEM of 3 assays
[22] = MES-SA/MX2 uterine fibrosarcoma (resistant), mean ±SEM of 3 assays
[23] = T47D breast ductal carcinoma, 48 hours drug, resazurin, mean ±SEM of 3 assays
[24] = GCT histiocytoma, 48 hours drug, resazurin, mean ±SEM of 3 assays
[25] = RD rhabdomyosarcoma, 48 hours drug, resazurin, mean ±SEM of 3 assays
[26] = 2.4 mg/kg intraperitoneal three times per week

SMILES | IC50 [1, 17] [µM] | times more potent against cancer cells than a normal non-cancer cell line, on average [2] [times] | IC50 [2, 18] [µM] | IC50 [3, 19] [µM] | IC50 [4, 20] [µM] | IC50 [5, 21] [µM] | IC50 [6, 22] [µM] | potency in the resistant fibrosarcoma strain compared to the sensitive strain (times less potent) [6] | IC50 [7, 23] [µM] | IC50 [8, 24] [µM] | IC50 [9, 25] [µM] | IC10 ([10]; compound alone, HT1080) [µM] | Averge tumor weight [13, 26] | tumor weight reduced [13] [%] | tumor progression by in vivo bioluminescent imaging [13] | further results
COc1cccc2c1C(=O)c1c(O)c3c(c(O)c1C2=O)C[C@@](O)(C(=O)CO)C[C@@H]3O[C@H]1C[C@H](N)[C@H](O)[C@H](C)O1 [Compound I, doxorubicin] | 18.9 | 2 | 9.06 | 33.7 ± 7.5 | 0.55 ± 0.08 | 0.605 ± 0.095 | 7.8 ± 1.8 | 14 times | 10.3 ± 7.8 | 0.279 ± 0.036 | 0.43 ± 0.15 |  |  |  |  | 
COc1cccc2c1C(=N)c1c(O)c3c(c(O)c1C2=O)C[C@@](O)(CCO)C[C@@H]3OC1CC(N)C(O)C(C)O1 (stereo partly drawn) [Compound III, 5-imino-13-deoxydoxorubicin] | 58.9 | 5.8 | 10.1 | 7.38 ± 0.45 | 10.5 ± 1 | 9.82 ± 0.93 | 90 |  | 18 | 3.37 ± 0.35 | 11.9 ± 3.99 | 5.34 | 1.40 g | 36 | not significantly reduced | times more potent in the presence of a nontherapeutic amount (IC10) of the other compound [10]: 35 times; IC50 ([10]; Homo sapiens, HT-1080, 48 h, HT1080, read-out: IC50 of compound III in the presence of an IC10 of compound IV): 1.78 µM; IC50 ([10]; Homo sapiens, HT-1080, 48 h, compound alone, HT1080, read-out: IC50): 63.4 µM; IC50 ([10]; compound alone, HT1080, read-out: IC50): 63.7 µM; anticancer activity in Phase I clinical trial [11]: anticancer activity in a variety of carcinomas, sarcomas, and bladder cancer; tolerability in Phase I clinical trial [11]: well tolerated with relatively mild toxicity for an anthracycline; IC50 ([12]; HT1080-luc in vitro, methods of Example 2): 10 ± 6.1 µM
COc1cccc2c1C(=N)c1c(O)c3c(c(O)c1C2=O)C[C@@](O)(CCO)C[C@@H]3OC1CC(N2C=CCC2)C(O)C(C)O1 (stereo partly drawn) [Compound IV, 2-pyrrolino-5-imino-13-deoxydoxorubicin] |  | 81 |  |  |  |  |  | about equal in potency |  |  |  | 0.84 | 1.03* g | 53 | reduced significantly statistically | cytotoxicity against HADF (normal) cells relative to doxorubicin I ([1]; 39.75/18.9): half as cytotoxic; IC50 ([1]; Homo sapiens): 39.8 µM; IC50 [2]: 0.49 µM; times more potent than compound I for inhibiting cell growth of cancer cells, on average ([2]; ratio of average IC50 values): 18 times; times more potent than compound III for inhibiting cell growth of cancer cells, on average ([2]; ratio of average IC50 values): 20 times; times more potent in the presence of a nontherapeutic amount (IC10) of the other compound ([10]; HT1080, IC50 alone / IC50 in combination): 12 times; IC50 ([10]; Homo sapiens, HT-1080, 48 h, compound alone, HT1080): 12.5 µM; IC50 ([10]; Homo sapiens, HT-1080, 48 h, read-out: IC50 of compound IV in the presence of an IC10 of compound III, HT1080): 1 µM; IC50 ([10]; read-out: IC50 of compound IV in the presence of an IC10 of compound III, HT1080): 1.01 µM; IC50 ([3]; SW872, 48 h): 0.57 ± 0.23 µM; IC50 ([4]; MES-SA): 0.76 ± 0.16 µM; IC50 ([5]; HeLa, 48 h): 0.467 ± 0.104 µM; IC50 ([6]; MES-SA): 0.66 ± 0.003 µM; times more potent than compound I in an anthracycline resistant cell line ([6]; MES-SA/MX2): 12 times; IC50 ([7]; T47D, 48 h): 0.817 ± 0.561 µM; IC50 ([8]; 48 h): 0.175 ± 0.015 µM; IC50 [12]: 3.51 ± 1.79 µM; tolerability in mice [13, 26]: well tolerated by the mice with no deaths and no overt signs of toxicity; IC50 ([9]; 48 h): 0.44 ± 0.13 µM
COc1cccc2c1C(=O)c1c(O)c3c(c(O)c1C2=O)C[C@@](O)(C(=O)CO)C[C@@H]3OC1CC(N2C=CCC2)C(O)C(C)O1 (stereo partly drawn) [compound II, 3′-deamino-3′-(2″-pyrroline-1″-yl)doxorubicin] |  |  |  |  |  |  |  |  |  |  |  |  |  |  |  | toxicity relative to doses required for an anticancer effect [14]: toxic or lethal at or below doses that are required for an anticancer effect; selectivity for cancer cells versus normal cells [15]: little or no selectivity; ability of DNA modifications to inhibit catalytic activity of topoisomerase II [16]: does not differ significantly from that of doxorubicin

From patent US10450340B2, “3′-deamino-3′-(2″-pyrroline-1″-yl)-5-imino-13-deoxyanthracyclines and methods of preparation” (priority 2017, dated 2019)
